Laboratory results as given in patent US20250084091A1, “INHIBITORS OF SARS-COV-2” (The Texas A&M University System, priority 2021, published 2025).
Read-outs that look alike come from different tables or passages of the source.

Tests used:
[1] = biological target: SARS-CoV-2 main protease (Mpro) (Severe acute respiratory syndrome coronavirus 2, UniProt P0DTD1); assay: biochemical; conditions: read-out: Enzyme IC50
HeLa-ACE2 cells = assay: cells; format: cell-based; conditions: Table 2, total cell count in infected plates
[2] = test system: SARS-CoV-2 (strain USA-WA1/2020); assay: microbe, parasite or virus in culture; format: cell-based; conditions: read-out: CoV-2 HeLa EC50
[3] = Uninfected host cell cytotoxicity counter screen; format: cell-based; conditions: human
Outline: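 HeLa-ACE2 cells, uninfected, seeded at 400 cells/well with compounds and held 24 hours at 37° C., 5% CO2. Dead cells stained with Image-iT DEAD green, fixed in 4% paraformaldehyde, DAPI-counterstained and imaged. Data normalized to DMSO and 40 μM puromycin controls; concentration responses in triplicate.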

[4] = Severe acute respiratory syndrome coronavirus 2, Table 2, SARS-CoV-2 infected HeLa-ACE2 cells

SMILES | IC50 ([1]; Table 2) | IC50 ([1]; Table 3, select example compounds against mpro) | EC50 (HeLa-ACE2 cells) | EC50 ([2]; Severe acute respiratory syndrome coronavirus 2, HeLa, Table 3) | EC50 [2, 4] | CC50 at 24 h [3]
O=C(c1cncc2[nH]ccc12)N1CCN(C2c3ccccc3CS(=O)(=O)c3ccccc32)CC1 (stereo not shown) [NZ-809, [4-(5,5-dioxo-6,11-dihydrobenzo[c][1]benzothiepin-11-yl)piperazin-1-yl]-(1H-pyrrolo[2,3-c]pyridin-4-yl)methanone] | 43 nM | 15 nM | 111 nM | 88 nM | 88 nM | > 39800 nM
O=C(c1cncc2nc[nH]c12)N1CCN(C2c3ccccc3CS(=O)(=O)c3ccccc32)CC1 (stereo not shown) [NZ-810, [4-(5,5-dioxo-6,11-dihydrobenzo[c][1]benzothiepin-11-yl)piperazin-1-yl]-(1H-imidazo[4,5-c]pyridin-7-yl)methanone] | 75 nM |  | 434 nM |  | 482 nM | > 39800 nM
O=C(c1cccnc1)N1CCN(C2c3ccccc3CCc3ccccc32)CC1 [ZS-312, 3-pyridyl-[4-(2-tricyclo[9.4.0.03,8]pentadeca-1(11),3(8),4,6,12,14-hexaenyl)piperazin-1-yl]methanone] | 440 nM |  | > 9610 nM |  | 1040 nM | > 39800 nM
O=C(c1cncc(Cl)c1)N1CCN(C2c3ccccc3CCc3ccccc32)CC1 [ZS-317, (5-chloro-3-pyridyl)-[4-(2-tricyclo[9.4.0.03,8]pentadeca-1(11),3(8),4,6,12,14-hexaenyl)piperazin-1-yl]methanone] | 180 nM |  | > 9610 nM |  | 900 nM | > 39800 nM
O=C(c1cncc(F)c1)N1CCN(C2c3ccccc3CCc3ccccc32)CC1 [ZS-318, (5-fluoro-3-pyridyl)-[4-(2-tricyclo[9.4.0.03,8]pentadeca-1(11),3(8),4,6,12,14-hexaenyl)piperazin-1-yl]methanone] | 150 nM |  | > 9610 nM |  | 700 nM | > 39800 nM
COc1cncc(C(=O)N2CCN(C3c4ccccc4CCc4ccccc43)CC2)c1 [ZS-319, (5-methoxy-3-pyridyl)-[4-(2-tricyclo[9.4.0.03,8]pentadeca-1(11),3(8),4,6,12,14-hexaenyl)piperazin-1-yl]methanone] | 210 nM |  | > 9610 nM |  | 920 nM | 32100 nM
O=C(c1cc[nH]c(=O)c1)N1CCN(C2c3ccccc3CCc3ccccc32)CC1 [ZS-320, 4-[4-(2-tricyclo[9.4.0.03,8]pentadeca-1(11),3(8),4,6,12,14-hexaenyl)piperazine-1-carbonyl]-1H-pyridin-2-one] | 1180 nM |  | > 9610 nM |  | 2530 nM | > 39800 nM
O=C1CC(C(=O)N2CCN(C3c4ccccc4CCc4ccccc43)CC2)c2ccccc2N1 (stereo not shown) [ZS-324, 4-[4-(2-tricyclo[9.4.0.03,8]pentadeca-1(11),3(8),4,6,12,14-hexaenyl)piperazine-1-carbonyl]-3,4-dihydro-1H-quinolin-2-one] | 540 nM |  | > 9610 nM |  | 2790 nM | 21100 nM
O=C1CC(C(=O)N2CCN(C(c3ccccc3)c3ccccc3)CC2)c2ccccc2N1 (stereo not shown) [ZS-325, 4-(4-benzhydrylpiperazine-1-carbonyl)-3,4-dihydro-1H-quinolin-2-one] | 1510 nM |  | > 9610 nM |  | 5680 nM | > 39800 nM
COC(=O)c1cncc(C(=O)N2CCN(C3c4ccccc4CCc4ccccc43)CC2)c1 [ZS-338, methyl 5-[4-(2-tricyclo[9.4.0.03,8]pentadeca-1(11),3(8),4,6,12,14-hexaenyl)piperazine-1-carbonyl]pyridine-3-carboxylate] | > 1000 nM |  | > 9610 nM |  | 7070 nM | > 39800 nM
O=C(c1cncc([N+](=O)[O-])c1)N1CCN(C2c3ccccc3CCc3ccccc32)CC1 [ZS-339, (5-nitro-3-pyridyl)-[4-(2-tricyclo[9.4.0.03,8]pentadeca-1(11),3(8),4,6,12,14-hexaenyl)piperazin-1-yl]methanone] | 1150 nM |  | > 9610 nM |  | 4060 nM | > 39800 nM
